# Results from article PMC8286840, “Identifying SARS-CoV-2 antiviral compounds by screening for small molecule inhibitors of Nsp3 papain-like protease” (Biochemical Journal, 2021).
# Structures can show the parent of a compound that is named as a salt. Where two headings read alike, the source gives them in different places.
# What was measured:
# [1] = target: T1, SARS-CoV-2 PLpro (nsp3 1564–1878) (Severe acute respiratory syndrome coronavirus 2, UniProt P0DTD1); assay: biochemical; design: FRET-quenched peptide (Pro3) cleavage by PLpro, 10 min pre-incubation, slope over 20 min, normalised to no-compound control; settings: low concentration screen, read-out: % of control remaining
# [2] = target: T1, SARS-CoV-2 PLpro (nsp3 1564–1878); assay: biochemical; design: FRET-quenched peptide (Pro3) cleavage by PLpro, 10 min pre-incubation, slope over 20 min, normalised to no-compound control; settings: high concentration screen, read-out: % of control remaining
smiles,measurement,setting,value
CC(C)Cc1ccc(CC(=O)O)cc1 [Ibufenac],remaining activity at 1.25 µM,[1]; Well no.=5479,105%
same,remaining activity at 3.75 µM,[2]; Well no.=5479,109%
NC(=O)c1ncn([C@@H]2O[C@H](CO)[C@@H](O)[C@H]2O)n1 [Ribavirin],remaining activity at 1.25 µM,[1]; Well no.=1256,96.8%
same,remaining activity at 1.25 µM,[1]; Well no.=2199,96.4%
same,remaining activity at 3.75 µM,[2]; Well no.=1256,97.1%
same,remaining activity at 3.75 µM,[2]; Well no.=2199,98.2%
CC(C)[C@H](CO)Nc1nc(Nc2cccc(Cl)c2)c2ncn(C(C)C)c2n1 [Purvalanol A - (2R)-2-[[6-[(3-Chlorophenyl)amino]-9-(1-methylethyl)-9H-purin-2-yl]amino]-3-methyl-1-butanol],remaining activity at 1.25 µM,[1]; Well no.=2434,105%
same,remaining activity at 3.75 µM,[2]; Well no.=2434,105%
O=C(O)c1nn(Cc2ccc(Cl)cc2Cl)c2ccccc12 [Lonidamine],remaining activity at 1.25 µM,[1]; Well no.=1121,92.8%
same,remaining activity at 3.75 µM,[2]; Well no.=1121,97%
Cc1ncc2ccccc2c1C#N [4-Cyano-3-methylisoquinoline],remaining activity at 1.25 µM,[1]; Well no.=2397,97.4%
same,remaining activity at 3.75 µM,[2]; Well no.=2397,95.8%
c1ccc(-c2ccc(C(c3ccccc3)n3ccnc3)cc2)cc1 (stereo not shown) [Bifonazole],remaining activity at 1.25 µM,[1]; Well no.=2173,99.6%
same,remaining activity at 3.75 µM,[2]; Well no.=2173,101%
CC(C)CCC[C@H](C)[C@H]1CC[C@H]2[C@@H]3CCC4=CC(=NO)CC[C@]4(C)[C@H]3CC[C@]12C [(20S)-cholest-4-en-3-one oxime],remaining activity at 1.25 µM,[1]; Well no.=5966,94.3%
same,remaining activity at 3.75 µM,[2]; Well no.=5966,96.1%
COc1cccc2oc(-c3ccccc3)cc(=O)c12 [5-Methoxyflavone],remaining activity at 1.25 µM,[1]; Well no.=3453,92.1%
same,remaining activity at 3.75 µM,[2]; Well no.=3453,90.5%
CCCCCC/C=C\CCCCCCCCCC(=O)O [11(Z)-Octadecenoic acid],remaining activity at 1.25 µM,[1]; Well no.=4348,102%
same,remaining activity at 3.75 µM,[2]; Well no.=4348,94%
C=CC(N)CCC(=O)O (racemic),remaining activity at 1.25 µM,[1]; Well no.=1528,98.8%
same,remaining activity at 3.75 µM,[2]; Well no.=1528,96.6%
"CCCOc1cc2c(cc1\C(C)=C/C=C/C(C)=C/C(=O)O)C(C)(C)CCC2(C)C [(2E,4E,6Z)-3-methyl-7-(5,5,8,8-tetramethyl-3-propoxy-5,6,7,8-tetrahydro-2-naphthalenyl)-2,4,6-octatrienoic acid]",remaining activity at 1.25 µM,[1]; Well no.=6004,92.7%
same,remaining activity at 3.75 µM,[2]; Well no.=6004,93%
NS(=O)(=O)Cc1noc2ccccc12 [Zonisamide],remaining activity at 1.25 µM,[1]; Well no.=1879,94.7%
same,remaining activity at 3.75 µM,[2]; Well no.=1879,96.4%
COc1ccc(-c2nc3cc(C4=NNC(=O)CC4C)ccc3[nH]2)cc1 (stereo not shown) [Pimobendan (Vetmedin)],remaining activity at 1.25 µM,[1]; Well no.=4957,100%
same,remaining activity at 3.75 µM,[2]; Well no.=4957,103%
O=C(O)CNC(=O)C(CS)Cc1ccccc1 (racemic) [DL-Thiorphan],remaining activity at 1.25 µM,[1]; Well no.=1243,103%
same,remaining activity at 3.75 µM,[2]; Well no.=1243,104%
Clc1ccc(CCC(Cn2ccnc2)Sc2c(Cl)cccc2Cl)cc1 (stereo not shown) [Butoconazole nitrate],remaining activity at 1.25 µM,[1]; Well no.=2204,96.3%
same,remaining activity at 3.75 µM,[2]; Well no.=2204,93.9%
OC(CCN1CCCCC1)(c1ccccc1)C1CCCCC1 (stereo not shown) [Trihexyphenidyl (hydrochloride)],remaining activity at 1.25 µM,[1]; Well no.=6375,105%
same,remaining activity at 3.75 µM,[2]; Well no.=6375,105%
CN(Cc1cc(Br)cc(Br)c1N)C1CCCCC1 [Bromhexine],remaining activity at 1.25 µM,[1]; Well no.=2177,98.4%
same,remaining activity at 3.75 µM,[2]; Well no.=2177,102%
O=C(Nc1ccncc1)C(=O)c1cn(Cc2ccc(Cl)cc2)c2ccccc12 [Indibulin],remaining activity at 1.25 µM,[1]; Well no.=6784,98.6%
same,remaining activity at 3.75 µM,[2]; Well no.=6784,98.9%
O=C(O)C(=O)c1cn(Cc2ccccc2)c2ccc(-c3ccc(OC(F)(F)F)cc3)cc12 [Tiplaxtinin],remaining activity at 1.25 µM,[1]; Well no.=5648,92.2%
same,remaining activity at 3.75 µM,[2]; Well no.=5648,93.4%
O=C1NC(=O)C(c2cnc3ccccn23)=C1c1cn2c3c(cc(F)cc13)CN(C(=O)N1CCCCC1)CC2 [LY2090314],remaining activity at 1.25 µM,[1]; Well no.=5645,98.7%
same,remaining activity at 3.75 µM,[2]; Well no.=5645,98.2%
NC(N)=NCC(=O)O [2-Guanidinoacetic acid],remaining activity at 1.25 µM,[1]; Well no.=6437,103%
same,remaining activity at 3.75 µM,[2]; Well no.=6437,105%
"O=C1c2ccccc2-[n+]2ccc3c([nH]c4ccccc43)c21 [Fascaplysin, Synthetic]",remaining activity at 1.25 µM,[1]; Well no.=2458,89%
same,remaining activity at 3.75 µM,[2]; Well no.=2458,82.7%
C[C@H](CCC(=O)O)[C@H]1CC[C@H]2[C@@H]3[C@H](O)C[C@@H]4C[C@H](O)CC[C@]4(C)[C@H]3C[C@H](O)[C@]12C [Cholic acid],remaining activity at 1.25 µM,[1]; Well no.=6201,105%
same,remaining activity at 1.25 µM,[1]; Well no.=8202,96.6%
same,remaining activity at 3.75 µM,[2]; Well no.=6201,105%
same,remaining activity at 3.75 µM,[2]; Well no.=8202,94.8%
C[C@@H](O[C@H]1OCCN(Cc2nn(P(=O)(O)O)c(=O)[nH]2)[C@H]1c1ccc(F)cc1)c1cc(C(F)(F)F)cc(C(F)(F)F)c1 [Fosaprepitant dimeglumine],remaining activity at 1.25 µM,[1]; Well no.=5269,97.5%
same,remaining activity at 3.75 µM,[2]; Well no.=5269,95.4%
COc1cc(OC)c(/C=C/S(=O)(=O)Cc2ccc(OC)c(NCC(=O)O)c2)c(OC)c1 [Rigosertib (sodium)],remaining activity at 1.25 µM,[1]; Well no.=6400,98.5%
same,remaining activity at 3.75 µM,[2]; Well no.=6400,97.7%
CCOC(=O)c1cnc2c(cnn2CC)c1NN=C(C)C [Etazolate hydrochloride],remaining activity at 1.25 µM,[1]; Well no.=550,101%
same,remaining activity at 3.75 µM,[2]; Well no.=550,103%
Nc1ccc(S(=O)(=O)Nc2nccs2)cc1 [Sulfathiazole (sodium)],remaining activity at 1.25 µM,[1]; Well no.=7404,104%
same,remaining activity at 3.75 µM,[2]; Well no.=7404,102%
CC[C@H]1OC(=O)C[C@@H](O)[C@H](C)[C@@H](O[C@@H]2O[C@H](C)[C@@H](O)[C@H](N(C)C)[C@H]2O)[C@@H](CCN2C[C@H](C)C[C@H](C)C2)C[C@@H](C)C(=O)/C=C/C(C)=C/[C@@H]1CO[C@@H]1O[C@H](C)[C@@H](O)[C@@H](OC)[C@H]1OC [Tilmicosin],remaining activity at 1.25 µM,[1]; Well no.=4746,97.6%
same,remaining activity at 3.75 µM,[2]; Well no.=4746,96.6%
CCOC(=O)Oc1c(OC)cc(C(=O)O[C@@H]2C[C@@H]3CN4CCc5c([nH]c6cc(OC)ccc56)[C@H]4C[C@@H]3[C@H](C(=O)OC)[C@H]2OC)cc1OC [Syrosingopine],remaining activity at 1.25 µM,[1]; Well no.=3310,100%
same,remaining activity at 3.75 µM,[2]; Well no.=3310,98.6%
NC(=O)c1[nH]cnc1N [5-Amino-3H-imidazole-4-Carboxamide],remaining activity at 1.25 µM,[1]; Well no.=7449,103%
same,remaining activity at 3.75 µM,[2]; Well no.=7449,104%
"CNCCNS(=O)(=O)c1cccc2cnccc12 [H-8, Dihydrochloride]",remaining activity at 1.25 µM,[1]; Well no.=2431,106%
same,remaining activity at 3.75 µM,[2]; Well no.=2431,105%
c1ccc2c(CC3=NCCN3)cccc2c1 [Naphazoline],remaining activity at 1.25 µM,[1]; Well no.=2007,105%
same,remaining activity at 3.75 µM,[2]; Well no.=2007,103%
CCCCCCCCCCCCCCCC(=O)O[C@@H]1[C@@H](O)[C@@H](O)[C@@H]([C@H](NC(=O)[C@@H]2C[C@@H](CCC)CN2C)[C@H](C)Cl)O[C@@H]1SC [Clindamycin palmitate.HCl],remaining activity at 1.25 µM,[1]; Well no.=1864,100%
same,remaining activity at 3.75 µM,[2]; Well no.=1864,102%
